According to publication PMC7961048, “Hierarchized phosphotarget binding by the seven human 14-3-3 isoforms” (Nature Communications, 2021):
Read-outs that look alike come from different tables or passages of the source. Starred links: 1 amine or outer side, 2 acyl side, 3 side chain; linkers in the order of their positions; H or OH if unused. Non-standard residues stand in square brackets, D forms with d. Residues, ends and D or L forms follow the SMILES beside them. *: point of attachment. X1 = O=C(CCCC[C@@H]1SC[C@@H]2NC(=O)N[C@@H]21)NCCCOCCOCCOCCCN*; pT = C[C@@H](OP(=O)(O)O)[C@H](N)C(=O)O; Suc = O=C(CCC(=O)[*:2])[*:1]

Assays:
Type in all cases: binding
[1] = biological target: T1, 14-3-3β (Homo sapiens, UniProt P31946); test: biochemical
T1 construct: cDNAs encoding other full-length 14-3-3 isoforms β, τ, η, and σ were obtained as codon-optimized; made in house; host or cells: E. coli BL21(DE3)
T1 sequence (P31946 1-246): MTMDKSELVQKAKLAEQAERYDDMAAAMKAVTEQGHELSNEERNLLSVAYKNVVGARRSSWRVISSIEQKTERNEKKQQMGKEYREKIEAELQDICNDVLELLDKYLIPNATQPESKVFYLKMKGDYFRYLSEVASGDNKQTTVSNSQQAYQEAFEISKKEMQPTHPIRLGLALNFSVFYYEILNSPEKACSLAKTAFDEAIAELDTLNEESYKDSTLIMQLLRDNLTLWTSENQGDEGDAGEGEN
Method: (§1) The seven full-length human 14-3-3 isoforms, produced as fusions to a maltose-binding protein (MBP), were analyzed for their interaction with four phospho-PBMs from E6 proteins of HPV types 16, 18, 33, and 35 belonging to subgroups 1 and 2 (as defined in Supplementary Fig. 1). For comparison, we also measured two non-viral phospho-PBMs originating from protein kinase RSK1[28]. We used a competitive fluorescence polarization (FP) assay that measures the displacement of a fluorescent tracer phosphopeptide (here, derived from the HSPB6 protein) bound beforehand to 14-3-3, by an increasing amount of the peptide of interest.
(§2) For affinity measurements, full-length human 14-3-3 constructs with an N-terminal MBP fusion were used. Plasmids containing the cDNAs of the full-length 14-3-3 isoforms ε, γ, and ζ were received from Prof. Lawrence Banks. cDNAs encoding other full-length 14-3-3 isoforms β, τ, η, and σ were obtained as codon-optimized for E. coli expression synthetic genes from IDT Technologies (Coralville, Iowa, USA). All 14-3-3 isoforms were fused via a three-alanine linker to the C terminus of a mutant MBP carrying the following amino acid substitutions facilitating crystallization: D83A, K84A, K240A, E360A, K363A, and D364A[62]. All resulting clones were verified by sequencing. The MBP-fused proteins were expressed in E. coli BL21(DE3) with IPTG induction. Proteins were affinity purified on an amylose column and were further purified by ion-exchange chromatography (HiTrap Q HP, GE Healthcare). Unfused 14-3-3 isoforms devoid of the flexible C-terminal tails (14-3-3βΔC, 14-3-3τΔC 14-3-3εΔC) were expressed using IPTG induction and purified by subtractive IMAC and SEC[40]. Protein concentrations were determined by UV spectroscopy. The samples were supplemented with glycerol and TCEP before aliquoting and freezing in liquid nitrogen.
(§3) Unless otherwise stated, all phosphopeptide-binding measurements were performed using full-length 14-3-3 proteins fused to the C terminus of MBP, favoring optimal solubility and a standardized parallel purification scheme.
(§4) FP was measured with a PHERAstar (BMG Labtech, Offenburg, Germany) microplate reader by using 485 ± 20 and 528 ± 20 nm band-pass filters (for excitation and emission, respectively). In direct FP measurements, a dilution series of the 14-3-3 protein was prepared in 96-well plates (96-well skirted PCR plate, 4ti-0740, 4titude, Wotton, UK) in a 20 mM HEPES pH 7.5 buffer containing 150 mM NaCl, 0.5 mM TCEP, 0.01% Tween 20, 50 nM fluorescently labeled fpB6 peptide, and 100 μM FSC, if indicated. The volume of the dilution series was 40 μl, which was later divided into three technical replicates of 10 μl upon transferring to 384-well micro-plates (low binding microplate, 384 well, E18063G5, Greiner Bio-One, Kremsmünster, Austria). In total, polarization of the probe was measured at eight different protein concentrations (whereas one contained no protein and corresponded to the free peptide). In competitive FP measurements, the same buffer was supplemented with the protein to achieve a complex formation of 60–80%, based on the direct titration. Then, this mixture was used for creating a dilution series of the unlabeled competitor (i.e., the studied peptides) and the measurement was carried out identically as in the direct experiment.
(§5) All FP experiments were done in triplicates. Analysis of FP experiments were carried out using ProFit, an in-house developed, Python-based fitting program. ProFit utilizes a Monte Carlo approach to take into account experimental variability. It generates hundreds of simulated datasets, based on the experimental data variance and fits direct and competitive measurements in pairs.

[2] = biological target: T2, 14-3-3γ (Homo sapiens, UniProt P61981); test: biochemical
T2 construct: full-length human 14-3-3 constructs with an N-terminal MBP fusion were used; made in house; host or cells: E. coli BL21(DE3)
T2 sequence (P61981 1-247): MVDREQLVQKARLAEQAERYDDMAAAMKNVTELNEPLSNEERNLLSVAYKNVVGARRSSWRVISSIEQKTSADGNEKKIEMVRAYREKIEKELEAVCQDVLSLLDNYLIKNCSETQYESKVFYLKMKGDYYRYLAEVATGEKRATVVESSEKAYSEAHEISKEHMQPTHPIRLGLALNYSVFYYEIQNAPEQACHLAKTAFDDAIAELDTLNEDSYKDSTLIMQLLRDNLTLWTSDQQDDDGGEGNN
Method: as §1, §2, §3, §4, §5

[3] = test system: seven human 14-3-3 isoforms; test: Affinities averaged or compared across the 14-3-3 family (ΔΔGav, KD ratios, affinity maps); details: for binding to 14-3-3 proteins: competitive FP, seven MBP-fused full-length 14-3-3 isoforms, result in words; for KD ratios, compared to LRRK2 pS910/pS935, 14-3-3β / KD ratios, compared to LRRK2 pS910/pS935, 14-3-3γ / KD ratios, compared to LRRK2 pS910/pS935, 14-3-3ζ / KD ratios, compared to LRRK2 pS910/pS935, 14-3-3η / KD ratios, compared to LRRK2 pS910/pS935, 14-3-3τ / KD ratios, compared to LRRK2 pS910/pS935, average / KD ratios, compared to LRRK2 pS910/pS935, 14-3-3ε / KD ratios, compared to LRRK2 pS910/pS935, 14-3-3σ: Figure 4 panel b; for KD ratios, compared to LRRK2 pS910/pS935, average: average over the isoforms; for KD ratios, compared to 14-3-3γ, 14-3-3β / KD ratios, compared to 14-3-3γ, 14-3-3γ / KD ratios, compared to 14-3-3γ, 14-3-3ζ / KD ratios, compared to 14-3-3γ, 14-3-3η / KD ratios, compared to 14-3-3γ, 14-3-3τ / KD ratios, compared to 14-3-3γ, 14-3-3ε / KD ratios, compared to 14-3-3γ, 14-3-3σ: Figure 4 panel c; for ΔΔGav (average 14-3-3 binding free energy difference) relative to p35E6: averaged over 14-3-3 isoforms, 295 K; for KD ratio relative to p35E6: corresponds to ΔΔGav averaged over 14-3-3 isoforms
Text: Former studies have measured the binding of the seven human 14-3-3 isoforms to unrelated phospho-motifs derived from Cystic Fibrosis Transmembrane Conductance Regulator (CFTR), Leucine-Rich Repeat Kinase 2 (LRRK2), Potassium channel subfamily K members (TASK1/3), C-Raf, the p65 subunit of the NF-κB transcription factor, and from Ubiquitin carboxyl-terminal hydrolase 8 (USP8), representing a wide variety of different 14-3-3-binding motifs, including C-terminal, internal, monovalent, or divalent motifs[40],[44]–[48].
(gray background). The color scale is either based on affinity values or on KD ratios. √ denotes affinities weaker than the limit of quantitation of the experimental assays. b Same map as in a, normalized to the strongest 14-3-3-binding motif. […] Source data are provided as a Source Data file.
All binding data and the obtained fits are provided as Supplementary Data File 1.

Structure (SMILES)	Kd [1]	Kd ([2]; KD (μM) ± std 14-3-3γ)	binding to 14-3-3 proteins [3]	Kd [2]	KD ratios, compared to LRRK2 pS910/pS935, 14-3-3β [3]	KD ratios, compared to LRRK2 pS910/pS935, 14-3-3γ [3]	KD ratios, compared to LRRK2 pS910/pS935, 14-3-3ζ [3]	KD ratios, compared to LRRK2 pS910/pS935, 14-3-3η [3]	KD ratios, compared to LRRK2 pS910/pS935, 14-3-3τ [3]	KD ratios, compared to LRRK2 pS910/pS935, average [3]	KD ratios, compared to 14-3-3γ, 14-3-3β [3]	KD ratios, compared to 14-3-3γ, 14-3-3γ [3]	KD ratios, compared to 14-3-3γ, 14-3-3ζ [3]	KD ratios, compared to 14-3-3γ, 14-3-3η [3]	KD ratios, compared to 14-3-3γ, 14-3-3τ [3]	ΔΔGav (average 14-3-3 binding free energy difference) relative to p35E6 [3]	KD ratios, compared to LRRK2 pS910/pS935, 14-3-3ε [3]	KD ratios, compared to LRRK2 pS910/pS935, 14-3-3σ [3]	KD ratios, compared to 14-3-3γ, 14-3-3ε [3]	KD ratios, compared to 14-3-3γ, 14-3-3σ [3]	other results
CC(C)[C@H](NC(=O)[C@H](CCC(=O)O)NC(=O)[C@@H](NC(=O)[C@H](CCC(=O)O)NC(=O)[C@H](CCCNC(=N)N)NC(=O)[C@H](CCCNC(=N)N)NC(=O)[C@@H](NC(=O)[C@@H]1CCCN1C(=O)[C@H](CCCCN)NC(=O)[C@H](CO)NC(=O)CCC(=O)NCCCOCCOCCOCCCNC(=O)CCCC[C@@H]1SC[C@@H]2NC(=O)N[C@@H]21)[C@@H](C)O)[C@@H](C)OP(=O)(O)O)C(=O)O [pHPV35E6] ({X1-Suc}-SKPTRRE[pT]EV-OH)	> 300 µM	125 ± 6 µM	detectably bound	–	–	–	–	–	–	–	–	–	–	–	–	–	–	–	–	–	Binding affinities (KD) of various 14-3-3-binding motifs, 14-3-3β [1]: √
CC(C)[C@H](NC(=O)[C@H](CCC(=O)O)NC(=O)[C@@H](NC(=O)[C@H](CCC(=O)O)NC(=O)[C@H](CCCNC(=N)N)NC(=O)[C@H](CCCNC(=N)N)NC(=O)[C@H](CCCNC(=N)N)NC(=O)[C@@H]1CCCN1C(=O)[C@H](CCCCN)NC(=O)[C@H](CO)NC(=O)CCC(=O)NCCCOCCOCCOCCCNC(=O)CCCC[C@@H]1SC[C@@H]2NC(=O)N[C@@H]21)[C@@H](C)OP(=O)(O)O)C(=O)O [pHPV35E6T-6R] ({X1-Suc}-SKPRRRE[pT]EV-OH)	179 ± 29 µM	–	–	71.2 ± 6.7 µM	8483	22250	28958	17708	20421	20000	2.51	1.00	1.95	1.19	2.72	–1.1 ± 0.5 kJ/mol	–	–	–	–	KD ratio relative to p35E6 [3]: 1.5 fold
CC(C)[C@H](NC(=O)[C@H](C)NC(=O)[C@@H](NC(=O)[C@H](CCC(=O)O)NC(=O)[C@H](CCCNC(=N)N)NC(=O)[C@H](CCCNC(=N)N)NC(=O)[C@@H](NC(=O)[C@@H]1CCCN1C(=O)[C@H](CCCCN)NC(=O)[C@H](CO)NC(=O)CCC(=O)NCCCOCCOCCOCCCNC(=O)CCCC[C@@H]1SC[C@@H]2NC(=O)N[C@@H]21)[C@@H](C)O)[C@@H](C)OP(=O)(O)O)C(=O)O [pHPV35E6E-1A] ({X1-Suc}-SKPTRRE[pT]AV-OH)	20.2 µM	–	–	9.31 µM	957.35	2909.38	3666.67	2583.33	2263.16	2200.00	2.17	1.00	1.89	1.33	2.31	–	2572.58	727.72	3.43	4.74	–
CC(C)C[C@H](NC(=O)[C@H](CCCNC(=N)N)NC(=O)CCC(=O)NCCCOCCOCCOCCCNC(=O)CCCC[C@@H]1SC[C@@H]2NC(=O)N[C@@H]21)C(=O)N[C@@H](CCC(N)=O)C(=O)N[C@@H](CCCNC(=N)N)C(=O)N[C@@H](CCCNC(=N)N)C(=O)N[C@@H](CCCNC(=N)N)C(=O)N[C@@H](CCC(=O)O)C(=O)N[C@H](C(=O)N[C@@H](CCC(N)=O)C(=O)N[C@H](C(=O)O)C(C)C)[C@@H](C)OP(=O)(O)O [pHPV18E6]	42.2 ± 6.3 µM	–	detectably bound	11.1 ± 0.6 µM	2000.00	3437.50	4666.67	4916.67	3978.95	4200.00	3.84	1.00	2.04	2.15	3.44	–	8145.16	2293.73	9.18	12.64	–
CC(C)C[C@H](NC(=O)[C@H](C)NC(=O)[C@@H](NC(=O)[C@H](CCC(=O)O)NC(=O)[C@H](CCCNC(=N)N)NC(=O)[C@H](CCCNC(=N)N)NC(=O)[C@H](CCCNC(=N)N)NC(=O)[C@H](CO)NC(=O)[C@H](CCCNC(=N)N)NC(=O)[C@H](CO)NC(=O)CCC(=O)NCCCOCCOCCOCCCNC(=O)CCCC[C@@H]1SC[C@@H]2NC(=O)N[C@@H]21)[C@@H](C)OP(=O)(O)O)C(=O)O [pHPV33E6] ({X1-Suc}-SRSRRRE[pT]AL-OH)	4.05 µM	< 1 µM	detectably bound	–	191.94	293.75	566.67	412.50	370.53	400.00	4.31	1.00	2.89	2.11	3.74	–10.9 ± 0.7 kJ/mol	830.65	111.72	10.96	7.20	Kd ([2]; Binding affinities (KD) of various 14-3-3-binding motifs, 14-3-3γ): 0.94 µM; KD ratio relative to p35E6 [3]: ~100 fold
